Measured values as given in article PMC4807248 (The Journal of Biological Chemistry, 2016).

T1: PqsC^C129A (P. aeruginosa PAO1, UniProt Q9I4X1 2-348, C129A)
T1 construct: also called PqsC subunit of PqsBC^C129A
T1 sequence: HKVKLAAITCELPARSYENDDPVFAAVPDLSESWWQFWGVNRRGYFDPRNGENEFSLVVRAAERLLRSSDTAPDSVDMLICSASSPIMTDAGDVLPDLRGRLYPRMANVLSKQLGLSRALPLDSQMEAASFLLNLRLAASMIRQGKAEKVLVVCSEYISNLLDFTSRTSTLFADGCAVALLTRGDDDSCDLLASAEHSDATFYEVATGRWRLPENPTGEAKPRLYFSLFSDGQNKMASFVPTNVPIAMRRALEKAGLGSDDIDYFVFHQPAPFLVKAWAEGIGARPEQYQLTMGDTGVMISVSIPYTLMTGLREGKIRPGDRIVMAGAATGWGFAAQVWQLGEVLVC

B1: PqsB (natural protein)
chain: MLIQAVGVNLPPSYVCLEGPLGGERPRAQGDEMLMQRLLPAVREALDEAAVKPEEIDLIVGLALSPDHLIENRDIMAPKIGHPLQKVLGANRAHVFDLTDSSLARALYVVDTLASDQGYRNVLVVRGESSQGLEVDSESGFALADGALALLCRPTGKAAFRRGALGGDPAQEWLPLSIPLNTDIRQVGDVKGHLNLPAQPGLPEAVRAGFTRLAGDFPQLNWVREEWFGQGRPDGRCLGPFELASQLRAAQRDRLDELLLISFDPFGMVVEGVTLELAGEAHA
notes: also called PqsB subunit of PqsBC

Columns and labels:
PqsBC [1] = molecular target: T2, PqsBC (Pseudomonas aeruginosa, UniProt Q9I4X1, C129S); assay: biochemical
T2 construct: gene pqsC
T2 sequence (Q9I4X1 whole entry, stated change not applied, one chain of several): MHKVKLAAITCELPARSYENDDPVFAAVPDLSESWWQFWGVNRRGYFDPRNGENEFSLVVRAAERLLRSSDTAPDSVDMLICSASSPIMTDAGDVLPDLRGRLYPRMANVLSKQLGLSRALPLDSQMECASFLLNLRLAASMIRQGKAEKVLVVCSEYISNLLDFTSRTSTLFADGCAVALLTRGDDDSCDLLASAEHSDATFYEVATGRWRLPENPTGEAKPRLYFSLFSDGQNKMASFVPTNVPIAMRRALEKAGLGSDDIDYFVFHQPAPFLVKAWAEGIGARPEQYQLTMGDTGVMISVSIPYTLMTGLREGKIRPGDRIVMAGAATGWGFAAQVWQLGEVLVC

PqsBC [2] = molecular target: T3, PqsBC (Pseudomonas aeruginosa, UniProt Q9I4X1, C129A); assay: biochemical
T3 construct: gene pqsC
T3 sequence (Q9I4X1 whole entry, stated change not applied, one chain of several): as above

PqsBC [3] = molecular target: T4, PqsBC (Pseudomonas aeruginosa, UniProt Q9I4X1, V299N); assay: biochemical
T4 construct: gene pqsC
T4 sequence (Q9I4X1 whole entry, stated change not applied, one chain of several): as above

PqsBC [4] = molecular target: T5, PqsBC (Pseudomonas aeruginosa, UniProt Q9I4X1, H269A); assay: biochemical
T5 construct: gene pqsC
T5 sequence (Q9I4X1 whole entry, stated change not applied, one chain of several): as above

PqsC^C129A = molecular target: T1, PqsC^C129A; assay: crystal structure; PqsBC^C129A crystallised in 25% PEG 3350, 0.1 M Tris pH 8.3, 0.2 M NaCl; 2.0 Å; four copies of PqsB and four of PqsC in the asymmetric unit; conditions: both partners purified

Molecule	Kd (PqsBC [1]) [µM]	Kd (PqsBC [2]) [µM]	Kd (PqsBC [3]) [µM]	Kd (PqsBC [4]) [µM]	binding result (PqsC^C129A)
CC(=O)c1ccccc1N [2-aminoacetophenone]	170 ± 10	158 ± 12	> 1000	117 ± 6	–
Nc1ccccc1C(=O)CC(=O)O [2-aminobenzoylacetate]	411 ± 43	330 ± 30	> 1000	198 ± 11	–
B1	–	–	–	–	binds
